Laboratory results from ChEMBL document CHEMBL1126434, “Anti-allergic and anti-inflammatory actions of 2-(tetrazole-5-yl)-4-hydroxy-2-methyl-2H-1,2-benzothiazine-3-carboxanilide 1,1-dioxide” (1992).

Experiments:
Type in all cases: functional
Rattus norvegicus [1] = organism: Rattus norvegicus; assay: Compound was evaluated for the inhibition of biosynthesis of prostaglandins at a concentration of 10e5 M
Rattus norvegicus [2] = organism: Rattus norvegicus; assay: Compound was evaluated for the inhibition of biosynthesis of prostaglandins at a concentration of 10e4 M
Rattus norvegicus [3] = assay: Compound was assessed for ulcerogenicity in rats at a dose of 500 mg/kg
Rattus norvegicus [4] = assay: Compound was assessed for ulcerogenicity in rats at a dose of 300 mg/kg
Rattus norvegicus [5] = organism: Rattus norvegicus; assay: Compound was evaluated for the inhibition of biosynthesis of prostaglandins at a concentration of 10e3 M

Row | SMILES | Inhibition (Rattus norvegicus [1]) [%] | Inhibition (Rattus norvegicus [2]) [%] | Ulcer index (Rattus norvegicus [3]) | Ulcer index (Rattus norvegicus [4]) | Inhibition (Rattus norvegicus [5]) [%]
1 | CN1C(C(=O)Nc2ccccc2-c2nn[nH]n2)=C(O)c2ccccc2S1(=O)=O | 0 | 0 | 0 | 0 | 0
2 | COc1ccc(/C=C/C(=O)Nc2ccccc2C(=O)O)cc1OC [TRANILAST] | 0 | 0 | 0 | 0 | 0
